Data published in patent publication US20250025568A1, “COMBINATION OF ANTIBODY-DRUG CONJUGATE AND PARP1 SELECTIVE INHIBITOR” (AstraZeneca UK Limited, priority 2021, published 2025).

B1: DS-1062: anti-TROP2 antibody-drug conjugate; exatecan-derivative drug-linker conjugated to the anti-TROP2 antibody via a thioether bond; DAR ~4 (conjugate, chains of the INN, looked up)
VH: QVQLVQSGAEVKKPGASVKVSCKASGYTFTTAGMQWVRQAPGQGLEWMGWINTHSGVPKYAEDFKGRVTISADTSTSTAYLQLSSLKSEDTAVYYCARSGFGSSYWYFDVWGQGTLVTVSS
VL: DIQMTQSPSSLSASVGDRVTITCKASQDVSTAVAWYQQKPGKAPKLLIYSASYRYTGVPSRFSGSGSGTDFTLTISSLQPEDFAVYYCQQHYITPLTFGQGTKLEIK
modifications: exatecan-derivative drug-linker, DAR ~4

Legend:
BRCA2 −/− DLD-1 = details: 4 day compound dosing; read-out: BRCA2 −/− DLD-1 prolif 4 d IC50; cited from earlier work
hERG = hERG (Homo sapiens, UniProt Q12809); details: cited from earlier work
hERG, sequence (Q12809 whole entry): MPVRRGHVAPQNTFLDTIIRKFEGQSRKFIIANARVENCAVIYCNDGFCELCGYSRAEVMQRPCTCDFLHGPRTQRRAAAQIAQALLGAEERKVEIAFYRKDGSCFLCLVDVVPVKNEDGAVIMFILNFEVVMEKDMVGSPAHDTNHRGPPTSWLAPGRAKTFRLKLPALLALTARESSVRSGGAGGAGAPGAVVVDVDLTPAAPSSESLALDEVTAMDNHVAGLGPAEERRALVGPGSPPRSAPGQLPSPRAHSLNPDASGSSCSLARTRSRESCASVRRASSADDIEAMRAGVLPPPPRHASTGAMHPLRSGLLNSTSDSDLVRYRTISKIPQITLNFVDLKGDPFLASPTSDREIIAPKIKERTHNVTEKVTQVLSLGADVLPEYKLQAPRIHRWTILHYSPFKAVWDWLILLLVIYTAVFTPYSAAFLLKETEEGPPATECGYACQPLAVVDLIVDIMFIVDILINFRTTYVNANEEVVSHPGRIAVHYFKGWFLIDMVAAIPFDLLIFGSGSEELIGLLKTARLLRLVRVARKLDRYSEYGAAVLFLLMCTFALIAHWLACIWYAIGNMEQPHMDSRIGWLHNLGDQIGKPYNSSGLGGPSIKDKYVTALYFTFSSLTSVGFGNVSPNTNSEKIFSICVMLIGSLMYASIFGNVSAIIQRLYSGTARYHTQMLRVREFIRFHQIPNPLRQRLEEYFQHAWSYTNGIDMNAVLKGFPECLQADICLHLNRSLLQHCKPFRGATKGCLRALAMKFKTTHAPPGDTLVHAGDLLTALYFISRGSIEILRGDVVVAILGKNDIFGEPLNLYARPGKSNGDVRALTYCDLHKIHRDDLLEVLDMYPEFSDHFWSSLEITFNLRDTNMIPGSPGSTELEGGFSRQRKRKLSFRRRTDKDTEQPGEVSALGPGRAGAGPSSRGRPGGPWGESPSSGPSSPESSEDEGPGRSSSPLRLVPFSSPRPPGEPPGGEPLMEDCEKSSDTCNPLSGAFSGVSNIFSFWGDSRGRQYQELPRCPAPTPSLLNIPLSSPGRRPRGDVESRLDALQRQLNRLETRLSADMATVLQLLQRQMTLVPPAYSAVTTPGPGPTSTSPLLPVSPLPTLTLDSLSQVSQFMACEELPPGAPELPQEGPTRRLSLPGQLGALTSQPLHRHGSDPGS

WT DLD-1 = details: 4 day compound dosing; read-out: WT DLD-1 prolif 4 d IC50; cited from earlier work
CTG-3718 ovarian PDX = experiment: Antitumor test in vivo, CTG-3718 xenograft model (Example 8); set-up: species or system nude mice
From the text: The human patient-derived xenograft (PDX) model, CTG-3718, was established from fragments of freshly resected tumor of an ovarian cancer patient who relapsed on treatment with PARP inhibitor talazoparib. This PDX was obtained in accordance with appropriate consent procedures. This ovarian PDX model was subcutaneously passaged in vivo as fragments from animal to animal in nude mice. When tumors reached approximately 250 mm^3, similar-sized tumors were randomly assigned to treatment groups as shown in Table 14: […]

[1] = tested on: NCI-N87 xenograft (gastric cancer cell line); experiment: Antitumor test (dose regimen optimization) in vivo, NCI-N87 xenograft model (Example 7); set-up: species or system Female Nude mice
Experimental: (§1) Female Nude mice (Charles River) aged 5-8 weeks were used, following 7 days acclimatisation before entry into the study. 5×10^6 NCI-N87 tumor cells (gastric cancer cell line) (1:1 in Matrigel) were implanted subcutaneously onto the flank of the female Nude mice. When tumors reached approximately 250 mm^3, similar-sized tumors were randomly assigned to treatment groups as shown in Table 12:
The dose of compound for each animal was calculated based on the individual body weight on the day of dosing. […]

[2] = tested on: NCI-N87 xenograft (gastric cancer cell line); experiment: Antitumor test (dose titration) in vivo, NCI-N87 xenograft model (Example 6); set-up: species or system Female Nude mice
Experimental: as §1, with “10:” for “12:”
(§2) The dose of compound for each animal was calculated based on the individual body weight on the day of dosing. DS-1062 and AZD5305 were dosed on the same day, with DS-1062 being administered approximately 5 hour post the PO dose of AZD5305. DS-1062 was administered as a single dose at 10 mg/kg on day 1, and AZD5305 was administered at 1, 0.1 or 0.01 mg/kg QD for 21 days. Duration of dosing was for 21 days.

[3] = tested on: NCI-N87 xenograft (gastric cancer cell line); experiment: Antitumor test in vivo, NCI-N87 xenograft model (Example 4); set-up: species or system Female Nude mice
Experimental: as §1, with “6:” for “12:”
as §2, with “1” for “1, 0.1 or 0.01”
(§3) Tumor growth inhibition (TGI) was calculated as follows:
(§4) where MTV=mean tumor volume.
(§5) Statistical significance was evaluated using one-tailed t-test of (log (relative tumor volume)=log (final vol/start vol)) at the day of final measure, comparing to vehicle control.

CTG-3303 TNBC PDX = experiment: Antitumor test in vivo, TNBC patient derived xenograft model (Example 5); set-up: species or system Female Nude mice; details: for TGI % day 46: CTG-3303 TNBC PDX; for percentage of mice achieving a complete response (tumor volume <20 mm^3): day 46 post treatment
From the text: Female Nude mice (Charles River) aged 5-8 weeks were used, following 7 days acclimatisation before entry into the study. The human patient-derived xenograft (PDX) model, CTG-3303, was established from fragments of freshly resected tumor of a triple negative breast cancer (TNBC) patient whom relapsed on treatment with PARP inhibitor talazoparib. This PDX was obtained in accordance with appropriate consent procedures. This TNBC PDX model was subcutaneously passaged in vivo as fragments from animal to animal in nude mice. When tumors reached approximately 250 mm^3, similar-sized tumors were randomly assigned to treatment groups as shown in Table 8:
as §2, with “1” for “1, 0.1 or 0.01”
as §3, §4, §5
In addition, the percentage of mice in each treatment group achieving a complete response (defined as tumor volume <20 mm^3) at day 46 post treatment were calculated and shown in FIG. 19B. Monotherapy with DS-1062 at 10 mg/kg led to 1 out 8 mice (12.5%) achieving a complete response at day 46 post treatment. AZD5305 monotherapy led to 0 out 8 mice (0%) achieving a complete response at day 46 post treatment. Combination treatment of AZD5305 with DS-1062 at 10 mg/kg led to 2 out 8 mice (25%) achieving a complete response at day 46 post treatment and led to higher complete response rates than either respective monotherapy.

[4] = AZD5305 1 mg/kg PO QD for 21 days, 1 mg/kg
[5] = DS-1062 10 mg/kg IV single dose, 10 mg/kg

| Molecule | IC50 (BRCA2 −/− DLD-1) [nM] | IC50 (WT DLD-1) [nM] | also measured |
| --- | --- | --- | --- |
| CCc1cc2ncc(CN3CCN(c4ccc(C(=O)NC)nc4C(F)(F)F)CC3)cc2[nH]c1=O [Example 30, 5-[4-[(7-ethyl-6-oxo-5H-1,5-naphthyridin-3-yl)methyl]piperazin-1-yl]-N-methyl-6 (trifluoromethyl)pyridine-2-carboxamide] | 4 | > 30000 | IC50 (hERG): > 40000 nM |
| CCc1cc2cnc(CN3CCN(c4ccc(C(=O)NC)nc4)CC3)cc2[nH]c1=O [Example 1, 5-[4-[(3-ethyl-2-oxo-1H-1,6-naphthyridin-7-yl)methyl]piperazin-1-yl]-N-methyl-pyridine-2-carboxamide] | 10 | > 30000 |  |
| CCc1nc2ccc(CN3CCN(c4ccc(C(=O)NC)nc4C(F)(F)F)CC3)cc2[nH]c1=O [Example 9, 5-[4-[(2-ethyl-3-oxo-4H-quinoxalin-6-yl)methyl]piperazin-1-yl]-N-methyl-6-(trifluoromethyl)pyridine-2-carboxamide] | 10 | 17000 |  |
| CCc1nc2ccc(CN3CCN(c4ccc(C(=O)NC)nc4Cl)CC3)cc2[nH]c1=O [Example 14, 6-chloro-5-[4-[(2-ethyl-3-oxo-4H-quinoxalin-6-yl)methyl]piperazin-1-yl]-N-methyl-pyridine-2-carboxamide] | 6 | > 30000 |  |
| CCc1cc2cnc(CN3CCN(c4ccc(C(=O)NC)nc4Cl)CC3)cc2[nH]c1=O [Example 3, 6-chloro-5-[4-[(3-ethyl-2-oxo-1H-1,6-naphthyridin-7-yl)methyl]piperazin-1-yl]-N-methyl-pyridine-2-carboxamide] | 4 | > 30000 |  |
| CCCc1nc2ccc(CN3CCN(c4ccc(C(=O)NC)nc4)CC3)cc2[nH]c1=O [Example 18, N-methyl-5-[4-[(3-oxo-2-propyl-4H-quinoxalin-6-yl)methyl]piperazin-1-yl]pyridine-2-carboxamide] | 4900 | > 30000 |  |
| CCc1nc2ccc(CN3CCN(c4ccc(C(=O)NC)nc4F)CC3)cc2[nH]c1=O [Example 12, 5-[4-[(2-ethyl-3-oxo-4H-quinoxalin-6-yl)methyl]piperazin-1-yl]-6-fluoro-N-methyl-pyridine-2-carboxamide] | 8 | > 30000 |  |
| CNC(=O)c1ccc(N2CCN(Cc3ccc4nc(CC(F)(F)F)c(=O)[nH]c4c3)CC2)cn1 [Example 27, N-methyl-5-[4-[[3-oxo-2-(2,2,2-trifluoroethyl)-4H-quinoxalin-6-yl]methyl]piperazin-1-yl]pyridine-2-carboxamide] | 10300 | > 10000 |  |
| CCCc1nc2ccc(CN3CCN(c4ccc(C(=O)NC)nc4F)CC3)cc2[nH]c1=O [Example 20, 6-fluoro-N-methyl-5-[4-[(3-oxo-2-propyl-4H-quinoxalin-6-yl)methyl]piperazin-1-yl]pyridine-2-carboxamide] | 16 | > 24000 |  |
| CCc1cc2ncc(CN3CCN(c4ccc(C(=O)NC)nc4C(F)F)CC3)cc2[nH]c1=O [Example 29, 6-(difluoromethyl)-5-[4-[(7-ethyl-6-oxo-5H-1,5-naphthyridin-3-yl)methyl]piperazin-1-yl]-N-methyl-pyridine-2-carboxamide] | 7 | > 30000 |  |
| CNC(=O)c1ccc(N2CCN(Cc3ccc4nc(C(F)(F)F)c(=O)[nH]c4c3)CC2)cn1 [Example 15, N-methyl-5-[4-[[3-oxo-2-(trifluoromethyl)-4H-quinoxalin-6-yl]methyl]piperazin-1-yl]pyridine-2-carboxamide] | 90 | > 30000 |  |
| CNC(=O)c1ccc(N2CCN(Cc3ccc4nc(C(F)(F)F)c(=O)[nH]c4c3)CC2)c(F)n1 [Example 17, 6-fluoro-N-methyl-5-[4-[[3-oxo-2-(trifluoromethyl)-4H-quinoxalin-6-yl]methyl]piperazin-1-yl]pyridine-2-carboxamide] | 20 | > 30000 |  |
| CCc1cc2ncc(CN3CCN(c4ccc(C(=O)NC)nc4F)CC3)cc2[nH]c1=O [Example 5, 5-[4-[(7-ethyl-6-oxo-5H-1,5-naphthyridin-3-yl)methyl]piperazin-1-yl]-6-fluoro-N-methyl-pyridine-2-carboxamide] | 6 | > 30000 |  |
| CCc1nc2cc(F)c(CN3CCN(c4ccc(C(=O)NC)nc4F)CC3)cc2[nH]c1=O [Example 21, 5-[4-[(2-ethyl-7-fluoro-3-oxo-4H-quinoxalin-6-yl)methyl]piperazin-1-yl]-6-fluoro-N-methyl-pyridine-2-carboxamide] | 16 | > 30000 |  |
| CCc1cc2ncc(CN3CCN(c4ccc(C(=O)NC)nc4)CC3)cc2[nH]c1=O [Example 4, 5-[4-[(7-ethyl-6-oxo-5H-1,5-naphthyridin-3-yl)methyl]piperazin-1-yl]-N-methyl-pyridine-2-carboxamide] | > 17 | > 30000 | TGI % day 28 (CTG-3718 ovarian PDX; AZD5305 0.1 mg/kg PO QD (21 days), 0.1 mg/kg): −16%; TGI % day 52 ([1]; AZD5305 1 mg/kg PO QD (21 days), 1 mg/kg): 26%; TGI % day 49 [2, 4]: 18%; TGI % day 19 [3, 4]: 22%; TGI % day 46 (CTG-3303 TNBC PDX; [4]): 28%; percentage of mice achieving a complete response (tumor volume <20 mm^3) (CTG-3303 TNBC PDX; AZD5305 1 mg/kg QD): 0% |
| CCc1cc2cnc(CN3CCN(c4ccc(C(=O)NC)nc4F)CC3)cc2[nH]c1=O [Example 2, 5-[4-[(3-ethyl-2-oxo-1H-1,6-naphthyridin-7-yl)methyl]piperazin-1-yl]-6-fluoro-N-methyl-pyridine-2-carboxamide] | 8 | > 30000 |  |
| B1 |  |  | TGI % day 28 (CTG-3718 ovarian PDX; [5]): 72%; TGI % day 52 [1, 5]: 84%; TGI % day 49 [2, 5]: 75%; TGI % day 19 [3, 5]: 82%; TGI % day 46 (CTG-3303 TNBC PDX; [5]): 88%; percentage of mice achieving a complete response (tumor volume <20 mm^3) (CTG-3303 TNBC PDX; DS-1062 10 mg/kg): 12.5% |
